From patent publication US9624235B2, “Compounds and methods for inhibition of AP endonuclease-1/redox factor-1 (HAPE1) activity” (University of Pittsburgh—Of the Commonwealth System of …, priority 2012, dated 2017)
pIC50, pKi: −log10 of the molar value. Values belong to the molecule of their own block, whether it stands above or below them.

What was measured:
APE-1 [1] = target: T1, APE-1 (Homo sapiens (Human), UniProt P27695); assay: Molecular beacon assay for APE-1 endonuclease inhibition; format: biochemical; settings: molecular beacon assay, endonuclease activity; read-out: Ki APE-1 endonuclease inhibition
Source text: Screening Assays for APE1 Inhibition—The initial screen was designed to look at the effect of potential inhibitors on APE1 repair kinetics. The approach can be used as a high throughput screen by choosing a specific timepoint to monitor. The screen utilizes a molecular beacon with a tetrahydrofuran (THF) abasic site within the stem region of a DNA hairpin that has a fluorophore on the 5′-terminus and a quencher on the 3′-terminus (FIG. 2a). […] An example of the molecular beacon screen and the excision assay are shown in FIGS. 2b,c and 2d, respectively.
Molecular Beacon Assay for Screening of APE-1 Inhibitors. A fluorescence-based molecular beacon assay to measure APE-1 protein activity and inhibition was performed as described previously with some modifications. Tang et al. Neuro Oncol. 13, 471-486 (2011) APE-1 (2 nM) in 10 mM HEPES (pH 7.8) 0.5 mM MgCl, 100 mM NaCl, 100 mM KCl, 0.0005% (w/v) BSA, was incubated with 20 nM 5′-(F)-CGACTXTTGAATTGACACGCCATGTCGATCAATTCAATAGTCG-(D)-3′ [X=tetrahydrofuran (THF) abasic site modification; F, 6-carboxyfluorescein (6-FAM); and D, DABCYL] that forms a hairpin with a 15 base pair stem and a 13 base loop. The THF modification is a known substrate for APE-1 excision. APE-1 mediated cleavage of the phosphodiester backbone at the THF-abasic site led to release of the 5′ 6-FAM (fluorophore) containing pentanucleotide, disrupting the Förster Resonance Energy Transfer (FRET) mediated quenching of the 6-FAM by DABCYL in the native hairpin oligomer. Since the signal was generated by continuous liberation of the fluorophore-labeled excision fragment, progress of this reaction could be monitored in real-time using a Cary Eclipse fluorescence spectrometer (Varian, Palo Alto, Calif.) or a Synergy H1 multi-well plate reader (BioTek, Winooski, Vt.). Reactions were optimized to yield ˜90% substrate turnover in 10 min, and fluorescence intensities measured every 12 s at 495 nm excitation and 520 nm emission. Data from the first 1-3 min of the assays (linear phase) were used to determine rate of substrate turnover (V0). The Michaelis constant (KM) was deduced experimentally, by incubating 2 nM APE-1 protein with 2-500 nM hairpin DNA substrate and measuring V0 —the experimentally observed V0 were analyzed as a function of substrate concentration [S] via non-linear regression using Prism (v.4; GraphPad Software, Inc., La Jolla, Calif.) and the KM was calculated as per the algorithm in the software package. To assay inhibition, 2 nM APE-1 protein was pre-incubated with 0.05-10.00 μM of the candidate inhibitors at 25° C. for 60 min, before initiating the excision assay by addition of hairpin DNA substrate. V0 was calculated at various concentrations of inhibitors and represented as inverse function of increasing inhibitor concentration [I]. […] All assays were carried out in three independent sets to obtain mean data and standard error of mean.
(§1) Screening for APE-1 Inhibitors. […] In this assay, the DNA hairpin substrate has a 6-FAM fluorophore on the 5′-terminus, a DABACYL fluorescence quencher on the 3′-terminus and a THF abasic site located 6 base pairs from the 5′-terminus in the stem region (FIG. 6). APE-1 activity is monitored as an increase in fluorescence due to the release of the 5′-(6-FAM)-GCACT fragment as a function of time. […] In this assay, substrate turnover was calculated from relative intensities of cleaved vs. intact oligomers and correlated with inhibitor concentration.

[2] = target: APE-1 activity in T98G cell nuclear lysates (Homo sapiens (Human), UniProt P27695); assay: Molecular beacon assay in T98G cell nuclear extracts; format: biochemical
Experimental: Isolation and Assay of APE-1 Protein from Nuclear Extracts of Glioma Cells. Human glioblastoma cells (T98G) were maintained in growth medium, i.e., Eagle's Minimum Essential Medium (EMEM) with 10% fetal bovine serum (FBS), […] gentamycin, 1×MEM non-essential amino acids and 1 mM sodium pyruvate. Cells were harvested by Trypsin-EDTA treatment, washed with 1×PBS and nuclear proteins isolated using the CelLytic NuCLEAR Extraction kit (Sigma-Aldrich) as per manufacturer's instructions. Isolated nuclear proteins were estimated colorimetrically (BCA protein assay) and stored at −80° C. (long term) or at −20° C. during regular use. To assay APE-1 activity in T98G cells, nuclear extracts were serially diluted in 10 mM HEPES, 50 mM KCl, 1 mM DTT, 20% (v/v) glycerol and the activities measured via the molecular beacon assay (as described above). […] EC2 nM of nuclear extracts was incubated with 2 to 500 nM hairpin DNA substrate and the V0 measured for each value of [S]. Finally, the apparent KM* was deduced using the software algorithm in Prism (as described previously), and the KM* was used to determine the apparent Ki*. Inhibition of EC2 nM APE-1 activity by the inhibitors was assayed via the molecular beacon assay (described above).
Inhibition of APE-1 Activity in Nuclear Lysates. The ability of 1-5 and 8 to block APE-1 endonuclease activity in a complex mixture of proteins from T98G cell nuclear lysates was tested using the molecular beacon assay. The APE-1 activity in the lysates was standardized to give ˜90% turnover of 25 nM substrate in 10 min.

T98G cells [3] = assay: Long term (10-day) CyQUANT cytotoxicity assay; format: cell-based, human
Experimental: (§2) Cytotoxic Effects of APE-1 Inhibitors on Cultured Human Glioblastoma (T98G) Cells. Human glioblastoma cells (T98G) were maintained in growth medium as described above. […] The cells were allowed to attach and grow for 24 h, and then treated with serial dilutions of the drug for 72 h. After treatment, viable cells were measured by an MTS assay using the CellTiter 96 AQueous kit (Promega) as per manufacturer's instructions. […] The cells were allowed to attach and grow for 24 h and treated with serial dilutions of the drug for 240 h. After treatment, viable cells were measured using the CyQUANT cell proliferation assay kit (Invitrogen) as per manufacturer's instructions.
(§3) Toxicity. It was assumed that inhibition of APE-1 activity would be lead to toxicity since genetic deletion of the protein is lethal to cells. […] The toxicities were also determined in combination with the DNA minor groove methylating agent, MeLex. MeLex efficiently and selectively generates N3-methyladenine, which is converted into an abasic site by a BER glycosylase and/or hydrolytic depurination. The T98G cell line is relatively resistant to DNA damaging anticancer agents due to expression of multiple drug resistance proteins and O^6-alkylguanine-DNA alkyltransferase. […] A goal of the development of APE-1 inhibitors is to determine if they can be used to enhance the activity of DNA alkylating agents.

APE-1 [4] = target: T1, APE-1; assay: Gel-based excision assay for APE-1 inhibitors; format: biochemical; settings: APE-1 cleaved fragment vs. full length DNA substrate
Experimental: as §1

VERA kidney cell line = settings: read-out: IC50 for the toxicity; cited from earlier work
[5] = tested on: HEYC-2 ovarian tumor cells; settings: read-out: IC50 for cell growth; cited from earlier work
T98G cells [6] = assay: Potentiation of MeLex cytotoxicity, short term (72 h) MTS assay; format: cell-based, human; settings: 72 h MTS assay
Experimental: (§4) Cytotoxic Potentiation of Various DNA Damaging Agents. T98G cells maintained in growth medium were resuspended in fresh growth medium and seeded into 96-well plates at 2000 cells/well (short term cytotoxicity) or 100 cells/well (long term cytotoxicity) as described in the previous section. After 24 h, the cells were treated with serial dilutions of various DNA damaging drugs in absence or presence of APE-1 inhibitors. At the end of the treatment period, cell survival was assayed using CellTiter 96 AQueous or CyQUANT kits for the short- and long-term studies respectively.
as §3

T98G cells [7] = assay: Short term (72 h) MTS cytotoxicity assay; format: cell-based, human; settings: 72 h MTS assay
Experimental: as §2, §3

APE-1 [8] = target: T1, APE-1; assay: Displacement of 4 from APE-1 by E3330 (fluorescence); format: binding; settings: 6 μM 4, 1 μM APE-1
Experimental: Fluorescence and UV Spectrometry Binding Studies. The fluorescence spectra were measured at room temperature on a Cary Eclipse fluorescence spectrometer (Varian, Palo Alto, Calif.). The fluorescence properties of 1 and 4 were measured in 10 mM HEPES, 0.5 mM MgCl2, 100 mM KCl, 100 mM NaCl, 2% glycerol, in absence or presence of wild type (unmodified) hairpin DNA (5′-[…]-3′) or THF-modified hairpin DNA (5′-CGAXTTCGCAGGACCGAATTCG-3′) or APE-1 protein. A solution of 0.5 μM of either DNA sequence was titrated against 1-10 μM ethidium bromide (EtBr) to determine saturation of EtBr by fluorescence (530 nm excitation with 610 nm emission) and the subsequent displacement of EtBr (4 μM) by 1-20 μM 1 or 4 was also assayed. The APE protein-inhibitor binding fluorescence was assayed by titrating 0.1-20 μM of 4 against 1 μM of APE-1 protein.
Interaction of Inhibitors with APE-1 Protein. To establish whether there is a direct interaction between an inhibitor and APE-1, the fluorescence spectra of 4 was determined in the absence and presence of increasing amounts of the protein.

[9] = tested on: aldehyde reactive sites in genomic DNA from T98G cells; format: cell-based, human
Experimental: Quantification of Abasic Sites. T98G cells maintained in growth medium, were harvested by Trypsin-EDTA treatment, resuspended in fresh growth medium at a density of 2.5×10^5 cells mL^−1, and 2 mL (5×10^5 cells) of this suspension was seeded into the wells of a sterile 6-well tissue culture plate. Cells were allowed to grow for 24 h, treated with the various compounds for different time points and/or at different concentrations. At the end of each treatment, adherent cells were harvested by trypsin-EDTA treatment and pooled with live and dead cells in culture supernatant. Pooled cells in suspension were pelleted by centrifugation, washed with 1×PBS and genomic DNA was isolated using the DNAzol reagent (Invitrogen). DNA in solution was quantified by UV absorbance (λ260 nm) using a Synergy H1 multiwell plate reader (BioTek, Winooski, Vt.). Abasic sites in purified DNA were then reacted with the biotin-conjugated aldehyde reactive probe (ARP), immobilized onto 96-well ELISA plates, and detected using horseradish peroxidase (HRP)-conjugated streptavidin using a colorimetric substrate as per manufacturer's instructions (Dojindo Molecular Technologies, Rockville, Md.).
The biotin tagged ARS are quantified using an avidin-biotin assay, followed by colorimetric detection with horseradish peroxidase conjugated to avidin.

T98G cells [10] = assay: Potentiation of MeLex cytotoxicity, long term (10 d) CyQUANT assay; format: cell-based, human; settings: LD10 concentration
Experimental: as §4, §3

[11] = tested on: SKOV-3X ovarian tumor cells; settings: read-out: IC50 for cell growth; cited from earlier work
T98G cells [12] = assay: MTT toxicity assay in T98G glioma cells; format: cell-based, human; settings: FIG. 3(a)
Experimental: FIGS. 3(a)-(b). […] (b) Toxicity of MeLex (efficiently generates 3-mA) in the absence (o) and presence of 50 nM ( ) or 250 nM (∇) inhibitor 4.
Toxicity of APE1 Inhibitors in T98G Glioma Cells—A short term (MTT assay) and long term (clonogenic assay) dose response toxicity for the inhibitors was performed in T98G glioma cells in the absence of a DNA alkylating agent. This cell line was selected because it is quite resistant to many DNA alkylating agents; therefore, it represents a good model to test the potential effect of APE1 inhibition on the toxicity of DNA damaging compounds.

T1 sequence (P27695 whole entry): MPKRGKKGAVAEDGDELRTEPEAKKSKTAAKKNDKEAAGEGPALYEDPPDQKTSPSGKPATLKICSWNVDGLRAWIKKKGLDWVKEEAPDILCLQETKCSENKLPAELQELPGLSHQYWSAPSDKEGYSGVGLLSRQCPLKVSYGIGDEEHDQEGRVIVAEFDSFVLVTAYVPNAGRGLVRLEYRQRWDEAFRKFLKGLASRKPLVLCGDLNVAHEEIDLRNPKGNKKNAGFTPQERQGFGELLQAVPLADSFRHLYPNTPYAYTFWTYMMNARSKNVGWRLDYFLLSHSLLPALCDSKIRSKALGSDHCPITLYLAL
Sequence of APE-1 activity in T98G cell nuclear lysates (P27695 whole entry, stated change not applied): as the sequence (P27695 whole entry) above

pKi (APE-1 [1]): 6.72
pKi [2]: 6.55
pIC50 (APE-1 [4]): 5.54
Structure (SMILES): Cc1cc(N/N=C/c2ccc3c(c2)OCO3)c2cc3c(cc2n1)OCO3 [Compound 3]
pIC50 (T98G cells [3]; Homo sapiens, T98G, assay not stated, read-out: toxicity observed in the glioma T98G line): 6.27
pIC50 (VERA kidney cell line): 6.20

Structure (SMILES): CCCCCCCCC/C(=C\C1=C(C)C(=O)C(OC)=C(OC)C1=O)C(=O)O [Compound E3330]
pIC50 [5]: ~4.46
LD50 of MeLex in the presence of LD10 concentration of inhibitor (T98G cells [6]): 128 µM
LD10 concentration (T98G cells [7]): 6.9 µM
E3330 concentration for approximately 50% decrease in the fluorescence of 4 (APE-1 [8]): approximately 12 μM
effect on ARS ([9]; 0.25 μM compound alone): returned to control levels by 18 h
level of ARS in combination with MeLex ([9]; 80 μM MeLex + 0.25 μM compound, after 6 h): dropped off
potentiating the toxicity of MeLex (T98G cells [10]): little or no contribution
LD10 concentration (T98G cells [3]; long term assay): 14.80 µM
pIC50 [11]: ~4.46

Structure (SMILES): CCn1c2ccccc2c2cc(/C=N/Nc3cc(C)nc4cc5c(cc34)OCO5)ccc21 [Inhibitor-1]
LD50 (T98G cells [12]): 960 nM
